The values below come from ChEMBL document CHEMBL1201862, “PubChem BioAssay data set” (2004).

Experiment [1] can be described thus: P. falciparum 3D7-ScDHODH growth inhibitors, dose response, SYBR Green, dry powder samples (AID 1159570).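 Also: parasite growth measured after 72 hours of compound exposure.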 It counts as functional, cell-based.
Experiment [2] is described as follows: P. falciparum Dd2 growth inhibitors, dose response, SYBR Green, dry powder samples (AID 1159566).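 Also: potency for growth inhibition with lower SYBR green DNA signal.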 The format is functional, cell-based.
The nature of experiment [3]: P. falciparum Dd2 growth inhibitors, dose response, SYBR Green, cherry-picked samples (AID 1159567). It counts as functional, cell-based.
Experiment [4] can be described thus: P. falciparum ATP4 D1247Y mutant growth inhibitors, dose response, NITD609-resistant line, SYBR Green, dry powder (AID 1159571).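 Also: parasites synchronized at ring stage by sorbitol before testing.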 The format is functional, cell-based.
Experiment [5] can be described thus: cytotoxicity toward NIH3T3 fibroblasts, dose response, counter-screen, cell-based, ATP luminescence, mouse fibroblasts (AID 2010).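 Also: cells exposed to compound for about 90 hours before reading.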 The format is functional.
Experiment [6] is described as follows: inhibitors of intracellular T. cruzi replication, confirmation, NIH3T3 host cells, beta-gal luminescence (AID 2044).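 Also: intracellular parasites grown in NIH/3T3 mouse fibroblasts as host cells; luminescent beta-galactosidase reporter signal from transgenic T. cruzi replicating inside host cells; inhibitors lower the luminescence signal.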 The format is functional, cell-based.
Experiment [7] has as its target DNA dC->dU-editing enzyme APOBEC-3G (Homo sapiens, UniProt Q9HC16). Kind of experiment: Dose Response confirmation of small molecule APOBEC3G DNA Deaminase Inhibitors via a fluorescence-based single-stranded DNA deaminase assay. [Related pubchem assays (depositor defined):AID493012, AID493028]. It counts as functional.
Experiment [8] relates to Vero. The experiment in a line: cells. The format is functional, cell-based. As to conditions: Chlorocebus sabaeus.
For experiment [9], the target named is T1, Fatty acid synthase (Homo sapiens, UniProt P49327). The experiment in a line: FAS thioesterase domain inhibitors, dose response, biochemical, kinetic fluorescence intensity (AID 624326).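 Also: rate of fluorescence rise from hydrolysis of a fluorogenic O-methyl fluorescein ester substrate.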 It counts as functional.
For experiment [10], the target named is T1, Fatty acid synthase. Kind of experiment: FAS thioesterase domain inhibitors, dose response, biochemical, endpoint fluorescence intensity, uHTS hits (AID 624327).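 Also: fluorescence from hydrolysis of an O-methyl fluorescein acyl ester substrate by the enzyme.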 The format is functional.
Experiment [11] is described as follows: intracellular Trypanosoma cruzi inhibitors in host cells – cell-based, plate reader, cherry-pick samples, set 3, dose response (AID 651818).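 Also: compounds incubated with infected cells for about four days.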 It counts as functional.
A short description of experiment [12]: HeLa cell cytotoxicity, dose response, cytotoxicity control for MgcRacGAP inhibitor project (AID 624300). It counts as functional.
Experiment [13] has as its target T2, Rac GTPase-activating protein 1 (Homo sapiens, UniProt Q9H0H5).
T2 sequence (Q9H0H5 whole entry): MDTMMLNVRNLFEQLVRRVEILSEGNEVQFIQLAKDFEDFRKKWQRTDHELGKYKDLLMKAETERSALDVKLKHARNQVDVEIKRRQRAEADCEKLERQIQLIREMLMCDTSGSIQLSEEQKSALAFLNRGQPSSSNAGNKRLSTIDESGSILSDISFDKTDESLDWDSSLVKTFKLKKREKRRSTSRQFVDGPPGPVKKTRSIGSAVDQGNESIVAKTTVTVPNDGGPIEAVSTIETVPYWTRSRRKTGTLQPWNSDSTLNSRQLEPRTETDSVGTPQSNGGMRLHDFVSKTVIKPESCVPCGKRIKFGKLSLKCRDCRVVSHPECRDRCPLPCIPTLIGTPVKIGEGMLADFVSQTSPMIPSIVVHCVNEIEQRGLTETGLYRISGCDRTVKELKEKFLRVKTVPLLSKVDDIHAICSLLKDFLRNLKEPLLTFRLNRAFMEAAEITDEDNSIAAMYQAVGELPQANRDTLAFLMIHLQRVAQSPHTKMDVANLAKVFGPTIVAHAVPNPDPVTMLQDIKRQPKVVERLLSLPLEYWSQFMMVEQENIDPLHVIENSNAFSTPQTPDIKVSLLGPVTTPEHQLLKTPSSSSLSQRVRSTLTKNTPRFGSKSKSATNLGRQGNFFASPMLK
Kind of experiment: MgcRacGAP GTPase-activating activity inhibitors, confirmation, biochemical, ADP Hunter fluorescence, primary and confirmatory (AID 624330). The format is functional.

Experiment [14] concerns the target Glyceraldehyde-3-phosphate dehydrogenase (Homo sapiens, UniProt P04406).
The target of the next experiment is Genome polyprotein (dengue virus type 2, UniProt P29990). The experiment in a line: Dengue-2 NS5 methyltransferase inhibitors, primary screen, biochemical, confirmation dose response (AID 588689). It counts as functional.
Experiment [15] has as its target T3, Replicative DNA helicase DnaB (Mycobacterium tuberculosis, UniProt P9WMR3).
T3 sequence (P9WMR3 whole entry): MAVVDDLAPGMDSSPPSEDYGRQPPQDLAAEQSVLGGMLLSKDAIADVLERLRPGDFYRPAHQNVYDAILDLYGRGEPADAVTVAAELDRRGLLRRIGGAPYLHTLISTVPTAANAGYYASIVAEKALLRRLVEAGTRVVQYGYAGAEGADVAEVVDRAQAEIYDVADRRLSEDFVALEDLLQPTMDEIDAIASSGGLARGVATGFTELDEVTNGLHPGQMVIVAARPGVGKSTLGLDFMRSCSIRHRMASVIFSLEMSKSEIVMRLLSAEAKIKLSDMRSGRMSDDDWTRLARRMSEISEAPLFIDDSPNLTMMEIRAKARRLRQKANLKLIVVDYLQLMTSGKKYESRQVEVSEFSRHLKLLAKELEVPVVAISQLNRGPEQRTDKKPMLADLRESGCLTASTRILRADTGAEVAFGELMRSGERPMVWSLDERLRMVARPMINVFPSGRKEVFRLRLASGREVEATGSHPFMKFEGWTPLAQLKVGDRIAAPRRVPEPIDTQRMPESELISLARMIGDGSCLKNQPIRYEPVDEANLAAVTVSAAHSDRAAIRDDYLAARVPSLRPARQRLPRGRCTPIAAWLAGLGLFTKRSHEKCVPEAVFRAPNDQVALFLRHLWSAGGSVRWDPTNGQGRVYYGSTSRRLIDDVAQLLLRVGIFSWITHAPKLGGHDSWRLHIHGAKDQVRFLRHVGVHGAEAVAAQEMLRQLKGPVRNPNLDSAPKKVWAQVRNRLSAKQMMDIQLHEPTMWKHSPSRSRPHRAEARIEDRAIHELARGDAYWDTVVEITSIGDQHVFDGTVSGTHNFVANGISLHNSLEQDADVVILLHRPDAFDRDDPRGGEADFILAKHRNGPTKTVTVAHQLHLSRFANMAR
Kind of experiment: DnaB intein splicing inhibitors, dose response, biochemical, cell-free fluorescence (AID 449749). The format is functional.

The next experiment addresses T4, Protein RecA (Mycobacterium tuberculosis, UniProt P9WHJ3).
T4 sequence (P9WHJ3 whole entry): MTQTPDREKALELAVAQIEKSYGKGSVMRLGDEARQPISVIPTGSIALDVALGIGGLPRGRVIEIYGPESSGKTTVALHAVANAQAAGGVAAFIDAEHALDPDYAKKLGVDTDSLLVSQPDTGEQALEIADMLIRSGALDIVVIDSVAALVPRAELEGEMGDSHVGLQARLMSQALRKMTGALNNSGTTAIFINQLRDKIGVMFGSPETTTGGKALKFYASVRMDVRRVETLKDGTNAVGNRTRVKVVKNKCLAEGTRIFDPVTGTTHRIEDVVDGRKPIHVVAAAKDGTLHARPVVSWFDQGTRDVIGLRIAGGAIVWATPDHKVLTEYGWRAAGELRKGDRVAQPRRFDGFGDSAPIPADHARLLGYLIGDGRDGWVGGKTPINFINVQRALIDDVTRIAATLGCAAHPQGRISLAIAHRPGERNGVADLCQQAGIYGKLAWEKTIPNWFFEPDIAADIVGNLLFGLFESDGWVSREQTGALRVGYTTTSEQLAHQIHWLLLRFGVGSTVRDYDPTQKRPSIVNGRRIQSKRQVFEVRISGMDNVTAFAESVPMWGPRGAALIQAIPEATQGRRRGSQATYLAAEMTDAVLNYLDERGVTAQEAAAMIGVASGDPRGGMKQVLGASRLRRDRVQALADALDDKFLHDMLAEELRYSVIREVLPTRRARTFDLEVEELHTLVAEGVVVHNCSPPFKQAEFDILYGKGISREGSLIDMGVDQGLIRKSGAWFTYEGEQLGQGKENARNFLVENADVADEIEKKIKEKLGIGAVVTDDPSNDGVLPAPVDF
Kind of experiment: Fluorescence Cell-Free Homogeneous Dose Retest to Identify Inhibitors of RecA-Intein Splicing Activity. [Related pubchem assays (depositor defined):AID2097, AID2223, AID489010, AID492950]. It counts as functional.

Experiment [16] has as its system Vero. The experiment in a line: cells. The format is functional. The following applies: Chlorocebus sabaeus.

The source made the active and inactive calls.

T1 sequence (P49327 whole entry, the tested form may be a part): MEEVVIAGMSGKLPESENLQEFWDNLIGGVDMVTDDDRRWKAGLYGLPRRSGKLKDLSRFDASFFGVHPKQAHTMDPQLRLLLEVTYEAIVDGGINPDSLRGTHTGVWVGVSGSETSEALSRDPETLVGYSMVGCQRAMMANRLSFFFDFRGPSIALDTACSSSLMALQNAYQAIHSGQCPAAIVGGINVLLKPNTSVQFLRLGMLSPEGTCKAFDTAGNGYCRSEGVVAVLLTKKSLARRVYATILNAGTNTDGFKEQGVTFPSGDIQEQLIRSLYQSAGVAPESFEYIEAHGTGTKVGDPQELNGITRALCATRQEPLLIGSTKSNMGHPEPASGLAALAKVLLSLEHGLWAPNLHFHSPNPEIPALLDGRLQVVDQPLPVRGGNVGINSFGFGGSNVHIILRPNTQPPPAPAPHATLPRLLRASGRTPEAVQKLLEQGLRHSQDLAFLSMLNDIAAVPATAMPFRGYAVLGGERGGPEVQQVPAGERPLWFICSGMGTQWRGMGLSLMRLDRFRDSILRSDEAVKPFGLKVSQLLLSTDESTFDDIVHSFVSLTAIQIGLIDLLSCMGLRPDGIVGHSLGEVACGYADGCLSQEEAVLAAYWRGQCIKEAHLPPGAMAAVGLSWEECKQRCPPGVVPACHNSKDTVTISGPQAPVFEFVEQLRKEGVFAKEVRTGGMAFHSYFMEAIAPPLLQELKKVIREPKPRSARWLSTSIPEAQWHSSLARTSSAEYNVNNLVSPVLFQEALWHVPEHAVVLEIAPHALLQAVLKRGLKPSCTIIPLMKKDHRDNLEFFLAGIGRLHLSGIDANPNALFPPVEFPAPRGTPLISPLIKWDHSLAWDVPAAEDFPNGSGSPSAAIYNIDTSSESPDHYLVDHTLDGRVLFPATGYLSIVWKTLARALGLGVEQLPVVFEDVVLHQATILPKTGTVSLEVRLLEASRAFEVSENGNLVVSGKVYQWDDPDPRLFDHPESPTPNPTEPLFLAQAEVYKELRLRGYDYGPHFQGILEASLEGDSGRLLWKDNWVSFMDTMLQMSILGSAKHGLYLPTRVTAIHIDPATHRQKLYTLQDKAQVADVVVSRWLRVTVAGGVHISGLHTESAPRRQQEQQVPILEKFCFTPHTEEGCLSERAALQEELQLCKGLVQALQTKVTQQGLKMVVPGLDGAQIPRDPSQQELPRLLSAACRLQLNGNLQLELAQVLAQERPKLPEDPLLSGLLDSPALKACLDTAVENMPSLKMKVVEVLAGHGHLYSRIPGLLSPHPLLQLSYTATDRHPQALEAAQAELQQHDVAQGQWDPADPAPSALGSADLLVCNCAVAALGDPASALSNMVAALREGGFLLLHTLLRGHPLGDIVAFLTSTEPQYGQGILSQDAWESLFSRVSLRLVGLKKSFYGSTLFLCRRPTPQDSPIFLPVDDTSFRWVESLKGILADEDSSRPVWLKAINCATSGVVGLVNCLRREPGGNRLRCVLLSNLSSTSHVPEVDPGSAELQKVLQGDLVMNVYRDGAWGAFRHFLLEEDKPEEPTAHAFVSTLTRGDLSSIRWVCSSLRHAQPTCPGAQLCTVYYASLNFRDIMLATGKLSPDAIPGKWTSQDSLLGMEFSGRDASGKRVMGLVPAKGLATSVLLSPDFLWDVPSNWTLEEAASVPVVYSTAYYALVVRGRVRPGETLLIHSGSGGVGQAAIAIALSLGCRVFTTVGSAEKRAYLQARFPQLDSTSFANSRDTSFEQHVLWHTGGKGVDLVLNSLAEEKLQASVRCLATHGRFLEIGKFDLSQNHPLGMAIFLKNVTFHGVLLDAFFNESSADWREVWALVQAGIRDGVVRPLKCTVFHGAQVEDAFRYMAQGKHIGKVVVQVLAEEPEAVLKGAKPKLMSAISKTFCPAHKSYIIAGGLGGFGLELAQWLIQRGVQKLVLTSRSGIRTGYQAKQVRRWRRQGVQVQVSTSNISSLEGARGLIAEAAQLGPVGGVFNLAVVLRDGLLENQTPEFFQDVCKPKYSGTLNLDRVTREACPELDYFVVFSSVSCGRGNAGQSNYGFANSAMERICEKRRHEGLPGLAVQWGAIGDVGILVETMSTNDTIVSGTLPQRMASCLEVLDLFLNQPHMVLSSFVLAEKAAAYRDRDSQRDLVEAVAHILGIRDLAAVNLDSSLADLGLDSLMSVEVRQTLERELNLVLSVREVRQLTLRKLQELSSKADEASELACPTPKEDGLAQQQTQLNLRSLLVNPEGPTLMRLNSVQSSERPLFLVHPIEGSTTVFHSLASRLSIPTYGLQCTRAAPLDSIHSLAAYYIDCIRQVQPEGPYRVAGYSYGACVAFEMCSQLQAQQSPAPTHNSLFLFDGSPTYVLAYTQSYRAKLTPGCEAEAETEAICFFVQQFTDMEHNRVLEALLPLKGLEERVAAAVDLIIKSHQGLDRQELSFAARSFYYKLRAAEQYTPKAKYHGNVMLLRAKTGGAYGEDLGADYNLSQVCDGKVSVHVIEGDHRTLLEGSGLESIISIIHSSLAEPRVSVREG
Chain of Glyceraldehyde-3-phosphate dehydrogenase (P04406 whole entry): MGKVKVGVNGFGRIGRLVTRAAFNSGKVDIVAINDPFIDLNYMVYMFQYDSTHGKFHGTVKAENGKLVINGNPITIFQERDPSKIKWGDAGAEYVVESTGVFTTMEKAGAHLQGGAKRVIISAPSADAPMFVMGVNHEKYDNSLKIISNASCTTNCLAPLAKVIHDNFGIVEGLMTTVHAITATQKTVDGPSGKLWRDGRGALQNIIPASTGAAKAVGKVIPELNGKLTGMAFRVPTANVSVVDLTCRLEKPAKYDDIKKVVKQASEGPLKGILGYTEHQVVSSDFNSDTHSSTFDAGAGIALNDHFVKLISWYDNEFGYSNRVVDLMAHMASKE
Chain of DNA dC->dU-editing enzyme APOBEC-3G (Q9HC16 whole entry): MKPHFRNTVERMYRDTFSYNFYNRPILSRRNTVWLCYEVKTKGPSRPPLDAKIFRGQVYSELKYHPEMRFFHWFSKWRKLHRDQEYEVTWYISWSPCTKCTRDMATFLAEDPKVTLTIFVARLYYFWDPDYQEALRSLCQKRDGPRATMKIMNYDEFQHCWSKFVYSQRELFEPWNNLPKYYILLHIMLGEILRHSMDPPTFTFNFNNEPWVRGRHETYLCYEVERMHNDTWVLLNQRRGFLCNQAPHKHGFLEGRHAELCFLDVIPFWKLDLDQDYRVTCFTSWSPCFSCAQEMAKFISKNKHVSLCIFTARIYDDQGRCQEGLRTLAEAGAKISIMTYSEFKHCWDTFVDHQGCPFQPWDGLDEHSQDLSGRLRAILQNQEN
Chain of Genome polyprotein (P29990 2492-3391 limits assumed): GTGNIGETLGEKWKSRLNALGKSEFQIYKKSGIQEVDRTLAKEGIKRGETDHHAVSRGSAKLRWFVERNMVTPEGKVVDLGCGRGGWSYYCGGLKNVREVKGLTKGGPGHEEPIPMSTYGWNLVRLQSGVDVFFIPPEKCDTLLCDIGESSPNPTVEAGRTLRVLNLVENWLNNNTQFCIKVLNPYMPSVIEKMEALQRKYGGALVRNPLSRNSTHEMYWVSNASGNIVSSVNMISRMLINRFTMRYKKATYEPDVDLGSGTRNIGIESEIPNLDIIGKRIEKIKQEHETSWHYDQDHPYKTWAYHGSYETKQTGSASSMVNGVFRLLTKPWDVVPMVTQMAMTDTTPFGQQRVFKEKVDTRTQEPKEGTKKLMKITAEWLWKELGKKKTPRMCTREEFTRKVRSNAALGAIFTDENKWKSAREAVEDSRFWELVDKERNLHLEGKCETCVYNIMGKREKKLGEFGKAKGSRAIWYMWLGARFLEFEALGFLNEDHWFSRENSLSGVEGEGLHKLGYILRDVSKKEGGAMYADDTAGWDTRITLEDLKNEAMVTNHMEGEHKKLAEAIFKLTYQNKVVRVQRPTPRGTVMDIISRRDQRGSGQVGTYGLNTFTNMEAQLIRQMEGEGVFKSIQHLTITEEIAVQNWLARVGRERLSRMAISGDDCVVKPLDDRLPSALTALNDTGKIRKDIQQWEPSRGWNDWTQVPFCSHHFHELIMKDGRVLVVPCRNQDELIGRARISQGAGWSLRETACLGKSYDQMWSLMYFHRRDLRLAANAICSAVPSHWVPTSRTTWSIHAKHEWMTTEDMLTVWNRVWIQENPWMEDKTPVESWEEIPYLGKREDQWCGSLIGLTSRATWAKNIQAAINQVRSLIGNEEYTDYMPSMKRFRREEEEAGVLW

Regarding `C[C@@H]1CN([C@@H](C)CO)C(=O)c2cccc(NC(=O)c3nc4ccccc4s3)c2O[C@H]1CN(C)C(=O)NC1CCCCC1`, the AC50 in experiment [1] was 0.846 µM (active); in [2], 1.08 µM (active); in [3], 1.37 µM (active); in experiment [4], 1.05 µM (active).
On to `COc1ccc(-n2c(SCC(=O)C(C)(C)C)nc3c(sc(=S)n3-c3ccccc3)c2=O)c(OC)c1`, for which the EC50 in [5] was > 60 µM (not active); in [6], 0.714 µM (active). Besides, in [7], the IC50 is 66.5 µM (active).
In the case of `Cc1ccc2oc(=O)c3cnn(CC(=O)Nc4ccccc4N4CCN(C)CC4)c3c2c1`, the IC50 in the experiment on Vero [8] was 9.16 µM (active).
With `C[C@H](CO)N1C[C@H](C)[C@H](CN(C)CC2CC2)Oc2ccc(NC(=O)Nc3ccccc3)cc2CC1=O`, the AC50 in experiment [1] is 3.81 µM (active); in experiment [2] it was 3.39 µM (active); in [3], 2.08 µM (active); in [4], 4.64 µM (active).
For the compound `O=C(COC(=O)c1cc([N+](=O)[O-])ccc1Cl)NCCc1ccccc1`, the IC50 on Fatty acid synthase [9] is 5.26 µM (active); at Fatty acid synthase [10], 3.93 µM (active).
As to `O=C(CN(CC(=O)N1CCOCC1)S(=O)(=O)c1ccc(Br)s1)N1CCOCC1`, the half-maximal inhibitory concentration (IC50) in experiment [7] was 74.3 µM (active).
In the case of `C[C@@H]1CN([C@H](C)CO)C(=O)Cc2cc(NC(=O)NC3CCCCC3)ccc2O[C@H]1CN(C)Cc1ccc(Oc2ccccc2)cc1`, the AC50 in experiment [11] was 3.58 µM (active).
Still for that read-out and setting: the result for `C[C@H](CO)N1C[C@H](C)[C@@H](CN(C)Cc2ccncc2)Oc2c(NC(=O)Nc3ccc(C(F)(F)F)cc3)cccc2C1=O` reads 2.97 µM (active).
On to `CC1CCCN(CCOc2ccc3ccccc3c2Br)C1` (stereo unspecified), for which, in [12], the CC50 is 68.9 µM (active). Further, in experiment [13], the IC50 was 142 µM (active).
For the compound `O=C(CSc1ncnc2c1cnn2-c1ccccc1)NC1CCCC1`, the IC50 is 5.67 µM (active) at Fatty acid synthase [9] and 5.94 µM (active) on Fatty acid synthase [10].
For the compound `O=C1C(Cl)=C(N2CCN(Cc3ccccc3)CC2)C(=O)N1c1ccc(Cl)nc1`, the IC50 in [14] was > 50 µM (inconclusive).
`C[C@H]1CN([C@@H](C)CO)C(=O)c2c(c3ccccc3n2C)-c2ccccc2CO[C@@H]1CN(C)C(=O)Nc1ccc(-c2ccccc2)cc1`: the AC50 is 0.787 µM (active) in experiment [1], 0.507 µM (active) in experiment [2], 1.38 µM (active) in experiment [3] and 0.532 µM (active) in experiment [4].
In the case of `C[C@H]1CN([C@@H](C)CO)C(=O)c2cc(NS(=O)(=O)c3ccc(F)cc3)ccc2O[C@@H]1CN(C)Cc1ccc(Cl)c(Cl)c1`, the AC50 in experiment [11] was 4.6 µM (active).
Regarding `O=C(O)CN1C(=O)/C(=C\c2cccc(OCc3ccc(Cl)cc3Cl)c2)SC1=S`, at Genome polyprotein, the IC50 is 36 µM (active). Moreover, in [15], the AC50 is 2.73 µM (active). At Protein RecA, the EC50 is 11.1 µM (active).
Consider `C[C@@H]1CCCCO[C@H](CN(C)C(=O)C2CCCCC2)[C@@H](C)CN([C@H](C)CO)C(=O)c2cc(NC(=O)Nc3ccc(C(F)(F)F)cc3)ccc2O1`, for which the concentration at half-maximal activity (AC50) in experiment [11] is 6.88 µM (active).
Consider `CCc1c(C(=O)NC2CCCc3ccccc32)[nH]c(C)c1C(C)=O` (stereo unspecified), for which the IC50 in the experiment with Vero [8] is 9.95 µM (active). Besides, the CC50 with Vero [16] was > 25 µM (active).
With `c1ccc2c(c1)Nc1ccncc1S2`, the CC50 in experiment [12] is 100 µM (active). In addition, in experiment [13], the IC50 was 269 µM (active).
For the compound `CN(C)C=O.O=C(O)c1ccccc1NS(=O)(=O)c1ccc(NN=Cc2ccc(F)cc2)c([N+](=O)[O-])c1`, the IC50 was 4.43 µM (active) at Fatty acid synthase [9] and 7.9 µM (active) at Fatty acid synthase [10].
On to `Cc1oc2c(c1C(=O)Nc1cccc(C(=O)O)c1)CCCC2`, for which the IC50 in [14] is listed as > 100 µM (not active).
Consider `COc1ccc(S(=O)(=O)Nc2cccc3c2O[C@@H](CN(C)Cc2ccc(C(=O)Nc4ccccc4N)cc2)[C@H](C)CN([C@@H](C)CO)C3=O)cc1`, for which the AC50 in experiment [11] was 3.61 µM (active).
As to `Cc1ccc(C(=O)O/N=C(\N)Cc2cccs2)cc1[N+](=O)[O-]`, the IC50 is 8.33 µM (active) on Fatty acid synthase [9] and 9.57 µM (active) on Fatty acid synthase [10].
